From patent US20130281311A1, “SPECIFIC BIOMARKER FOR IDENTIFICATON OF EXPOSURE TO PROPIONALDEHYDE AND THE METHOD OF IDENTIFICATION USING THE SAME” (KOREA INSTITUTE OF SCIENCE AND TECHNOLOGY, priority 2012, published 2013) come the findings set out here.

Data set [1] deals with TNFSF10 (tumor necrosis factor (ligand) superfamily, member 10; NM_003810). Briefly: Oligo microarray gene expression in A549 cells, TNFSF10. The class given is cell-based, human. Conditions: A549, 48 hours at the concentration of Example 1-2, Cy5/Cy3 ratio. Here is the method:
(§1) A549 cells were distributed in 6-well plate at the density of 25×10^4 cells/ml, to which propionaldehyde was treated for 48 hours at the concentration determined in Example <1-2>. Total RNA was extracted from the cells by using trizol reagent according to the manufacturer's protocol (Invitrogen life technologies, USA), followed by purification by using RNease mini kit (Qiagen, USA). Genomic DNA was eliminated by using RNase-free DNase set (Qiagen, USA) during the RNA purification. The amount of total RNA was measured with spectrophotometer, and the concentration was confirmed by ND-1000 Spectrophotometer (Thermo Fisher Scientific Inc., USA) and Agilent 2100 Bioanalyzer (Agilent).
(§2) For oligomicroarray analysis, cDNA was synthesized by using the total RNA obtained from the experimental group treated with propionaldehyde prepared in Example <2-1>. 30 μg of the obtained total RNA and 2 μg of oligo (dT) primer (1 μg/μl) were mixed together, followed by reaction at 65° C. for 10 minutes, which was transferred into ice for annealing. […]
(§3) Hybridization images on the slide were scanned with Agilent C scanner (Agilent technologies, CA, USA). […] To obtain gene expression rate, the scanned images were analyzed by using Agilent Feature Extraction 10.7.3.1 (Agilent technologies, CA, USA). […]

Data set [2] concerns A549 cells. Briefly: Human whole genome oligo microarray, genome-wide expression change. Format: cell-based. The note with it: A549, 48 hours. Here is the method: In a preferred embodiment of the present invention, to screen a biomarker for the identification of propionaldehyde specific exposure, the present inventors treated propionaldehyde to the human lung cancer tissue derived cell line A549 and then investigated cytotoxicity therein. […] Based on the result of that experiment, the concentration of propionaldehyde was determined. Propionaldehyde was treated to the human lung cancer tissue derived cell line at the determined concentration. From the cell line treated with propionaldehyde, mRNA was extracted, followed by synthesis of cDNA which was labeled with fluorescein (Cy5). The control not treated with propionaldehyde was labeled with Cy3. The fluorescein-labeled cDNA was hybridized with 8×60 k oligomicroarray chip [Human whole genome oligo microarray (Agilent, USA)], followed by scanning fluorescence image to analyze gene expression patterns (see FIG. 2). […] 5 kinds of genes whose expressions were increased or decreased specifically by propionaldehyde alone among […] (butylaldehyde, valeradehyde, hexanal, heptanal, octanal, and propionaldehyde) were selected by using real-time quantitative PCR (see FIG. 3, Table 3, and Table 4). […]
A549 cells were distributed in 6-well plate at the density of 25×10^4 cells/ml, to which propionaldehyde was treated for 48 hours at the concentration determined in Example <1-2>. […]

Data set [3] deals with LPAR1 (lysophosphatidic acid receptor 1; NM_057159). Briefly: Oligo microarray gene expression in A549 cells, LPAR1. The class given is cell-based, human. Conditions: A549, 48 hours at the concentration of Example 1-2, Cy5/Cy3 ratio. Here is the method: as §1, §2, §3
Data set [4] deals with HMOX1 (heme oxygenase 1; NM_002133). The experiment in a line: Oligo microarray gene expression in A549 cells, HMOX1. The class given is cell-based, human. Conditions: A549, 48 hours at the concentration of Example 1-2, Cy5/Cy3 ratio. The procedure:
as §1, §2, §3

The nature of data set [5]: Cytotoxicity test (MTT assay). Format: cell-based, human. The note with it: human, A549 cells; A549 cell line, 48 hours, MTT, OD540; read-out: IC20 (the concentration showing 20% survival rate). Here is the method:
(§4) A549 cells (Korean Cell Line Bank), the human lung cancer tissue derived cell line, were cultured in 100 mm dish containing RPMI (Gibro-BRL, USA) supplemented with 10% FBS until the confluency reached 80%. The present inventors selected propionaldehyde, one of aldehydes among many volatile organic compounds exposed in environment, as a target material based on the previous studies and reports, and then dissolved in DMSO (dimethyl sulfoxide). The concentration of vehicle was up to 0.1% in every experiment.
(§5) MTT assay was performed with A549 cell line according to the method of Mossman, et al (J. Immunol. Methods, 65, 55-63, 1983).
(§6) Particularly, the cells were distributed in 24-well plate (3.5×10^4 cells/well) containing RPMI (Gibro-BRL, USA) and then treated with propionaldehyde dissolved in DMSO. 48 hours later, 5 mg/ml of MTT (3-4,5-dimethylthiazol-2,5-diphenyltetra zolium bromide) was added thereto, followed by culture at 37° C. for 3 hours. Then, the medium was discarded and the formed formazan crystal was dissolved in […] of DMSO, which was aliquoted in 96-well plate. OD540 was measured.
On the technique in general: Tetrazolium dyes change colour on reduction, which living cells bring about.

Data set [6] relates to A549 cells. The experiment in a line: Cytotoxicity test (MTT assay). Format: cell-based, human. Conditions: A549, result in words. The procedure: as §4, §5, §6
Data set [7] relates to AGT, LPAR1, SECTM1, TNFSF10, HMOX1. The experiment in a line: Quantitative real-time RT-PCR of the 5 marker genes. The class given is cell-based, human. Conditions: endogenous control MDH1; result in words. Here is the method: At that time, to confirm the propionaldehyde specific expression changes, the said genes were investigated with their expression patterns using the additional 5 aldehydes listed in Table 3.
Particularly, cDNA was synthesized by performing reverse transcription by using oligo dT primer and Superscript kit (Omniscipt™ kit, Qiagen, Co., USA). 0.2 μl of the synthesized cDNA was mixed with 3.8 μl of water, 0.5 μl of sense primer, 0.5 μl of anti-sense primer, and 5 μl of SYBR Green I staining supermix (Bio-rad, USA), which was loaded in PCR tube, followed by reaction in My IQ real-time PCR machine designed to execute reaction as follows: step 1, 95° C. for 3 minutes; step 2 (45 cycles), step 2-1, 95° C. for 10 seconds; step 2-2, 57° C. for 45 seconds; step 3, 95° C. for 1 minute; step 4, 55° C. for 1 minute; step 5 (80 cycles), 55° C. for 10 seconds. The PCR product was stained with SYBR Green I (Bio-rad, USA) to quantify thereof. SYBR Green I staining is the method taking advantage of intercalating with double-stranded DNA, and thus the more double-stranded DNA is produced, the stronger the fluorescence intensity is obtained during PCR. Primers for the target gene used for PCR and the endogenous control (MDH1) were added to SYBR Green master-mix, followed by PCR. […] Then, PCR was performed and the result was analyzed by using quantitative software.
A general note: In qPCR the cycle at which signal appears reflects the starting amount.

Data set [8] deals with SECTM1 (secreted and transmembrane 1; NM_003004). Briefly: Oligo microarray gene expression in A549 cells, SECTM1. The class given is cell-based, human. The note with it: A549, 48 hours at the concentration of Example 1-2, Cy5/Cy3 ratio. Here is the method:
as §1, §2, §3

The subject of data set [9] is AGT (angiotensinogen; NM_000029). The experiment in a line: Oligo microarray gene expression in A549 cells, AGT. The class given is cell-based, human. The note with it: A549, 48 hours at the concentration of Example 1-2, Cy5/Cy3 ratio. The procedure: as §1, §2, §3

For `CCC=O` [propionaldehyde], in [1], the “Median ratio of microarray by propionaldehyde exposure, TNFSF10” value was determined as 0.65. In addition, in the data set on A549 cells [2] (900 genes out of 42,405), the “genes showing at least 1.5 fold higher expression (Cy5/Cy3 ratio)” value is listed as 2.12%. Besides, in the data set with A549 cells [2] (1,522 genes out of 42,405), the “genes showing lower expression (Cy5/Cy3 ratio lower than 0.66)” value came out at 3.59%. Further, the “Median ratio of microarray by propionaldehyde exposure, LPAR1” value in data set [3] is given as 0.62. For the same compound, in data set [4], the “Median ratio of microarray by propionaldehyde exposure, HMOX1” value is on record as 1.52. For the same compound, the IC20 at 48 h in data set [5] worked out at 2.5 mM. For the same compound, the “cytotoxicity in the human lung cancer tissue derived cell line” value with A549 cells [6] is given as “had cytotoxicity”. The “expression patterns of the 5 genes by real-time RT-PCR” value in data set [7] is listed as “very similar to the results of microarray chip analysis”. In addition, the “Median ratio of microarray by propionaldehyde exposure, SECTM1” value in [8] came to 0.63. In data set [9], the “Median ratio of microarray by propionaldehyde exposure, AGT” value is recorded as 0.55.
